Assay results taken from patent US7582803B2 (Amgen Inc., priority 2005, dated 2009).
pEC50: −log10 of the molar value.

Target: T1, human GPR40 (Homo sapiens, UniProt O14842)
T1 construct: expressed in transfected cells; host or cells: CHO cells
Assay: Cell-based aequorin assay
Conditions: CHO cells stably transfected with GPR40 and aequorin; 0.01% HSA; aequorin luminescence; read-out: Relative EC50
Description: Cell-based aequorin assays were employed to characterize the modulatory activity of compounds on the GPR40 signaling pathway. In an exemplary assay, CHO cells were stably transfected with both GPR40 and Aequorin (Euroscreen). Cells were detached from the tissue culture dish with 2 mL of trypsin (0.25% (w/v)). Trypsinization was halted with 28 mL of Hanks Buffered Salt Solution containing 20 mM Hepes (H/HBSS) and 0.01% fatty acid-free human serum albumin (HSA). Coelantrazine is added to 1 ug/mL, and the cells were incubated for 2 hours at room temperature. Compounds were dissolved in DMSO for preparation of 10 mM stock solutions. Compounds were diluted in H/HBSS containing 0.01% HSA. Serial dilutions of the test compounds were prepared to determine dose response.
Aequorin luminescence measurements were made using an EG&G Berthold 96-well luminometer, and the response was measured over a 20 second interval after cells and compounds were mixed. The maximum relative light units was plotted to determine dose response. The EC50 (effective concentration to reach 50% maximal response) was determined from the dose response plot.
Table 1 presents representative data (EC50 values) obtained for exemplary compounds of the invention for the relative activation of human GPR40. […]

T1 sequence (O14842 whole entry): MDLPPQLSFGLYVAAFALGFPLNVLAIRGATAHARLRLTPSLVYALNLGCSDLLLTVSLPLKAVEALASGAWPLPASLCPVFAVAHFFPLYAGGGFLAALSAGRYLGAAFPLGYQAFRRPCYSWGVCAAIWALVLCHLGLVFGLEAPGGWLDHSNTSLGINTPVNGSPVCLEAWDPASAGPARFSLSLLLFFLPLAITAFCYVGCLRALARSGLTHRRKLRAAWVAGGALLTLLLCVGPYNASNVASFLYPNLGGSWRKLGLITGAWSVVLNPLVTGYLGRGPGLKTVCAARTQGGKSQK

SMILES | pEC50
CC#C[C@@H](CC(=O)O)c1ccc(OC2c3ccccc3CC2C)cc1 (mixture of isomers) [Example 21, (3S)-3-[4-(2-Methyl-indan-1-yloxy)-phenyl]-hex-4-ynoic acid] | 7.00 to 8.00
Cc1ccc(C(CC(=O)O)c2ccc(OC3CCc4cc(Cl)ccc43)cc2)s1 (racemic) [Example 23, (+/−)-3-(4-(5-Chloro-2,3-dihydro-1H-inden-1-yloxy)phenyl)-3-(5-methylthiophen-2-yl)propanoic acid] | 5.00 to 6.00
O=C(O)CC(c1ccc(OC2CCC(c3ccccc3)CC2)cc1)c1cccs1 (racemic) [Example 31, (+/−)-3-(4-(4-Phenylcyclohexyloxy)phenyl)-3-(thiophen-2-yl)propanoic acid] | 5.00 to 6.00
O=C(O)CC(c1ccc(OC2Cc3ccccc3C2)cc1)c1ncco1 (racemic) [Example 32, (+/−)-3-(4-(2,3-Dihydro-1H-inden-2-yloxy)phenyl)3-(oxazol-2-yl)propanoic acid] | 5.00 to 6.00
O=C(O)CC(c1ccc(OC2CCc3cc(Cl)ccc32)cc1)c1ncco1 (racemic) [Example 33, (+/−)-3-(4-(5-Chloro-2,3-dihydro-1H-inden-1-yloxy)phenyl)-3-(oxazol-2-yl)propanoic acid] | 5.00 to 6.00
Cc1cnc(C(CC(=O)O)c2ccc(OC3CCc4cc(Cl)ccc43)cc2)o1 (racemic) [Example 34, (+/−)-3-(4-(5-Chloro-2,3-dihydro-1H-inden-1-yloxy)phenyl)-3-(5-methyloxazol-2-yl)propanoic acid] | 5.00 to 6.00
O=C(O)CC(c1ccc(OC2Cc3ccccc3C2)cc1)c1cc(F)cc(F)c1 (racemic) [Example 36, (+/−)3-(3,5-Difluorophenyl)-3-(4-(2,3-dihydro-1H-inden-2-yloxy)phenyl)propanoic acid] | 6.00 to 7.00
O=C(O)CC(c1ccc(OC2Cc3ccccc3C2)cc1)c1cc(F)ccc1F (racemic) [Example 37, (+/−)3-(2,5-Difluorophenyl)-3-(4-(2,3-dihydro-1H-inden-2-yloxy)phenyl)propanoic acid] | 6.00 to 7.00
O=C(O)CC(c1ccc(OC2Cc3ccccc3C2)cc1)c1ccc(F)cc1F (racemic) [Example 38, (+/−)3-(2,4-Difluorophenyl)-3-(4-(2,3-dihydro-1H-inden-2-yloxy)phenyl)propanoic acid] | 6.00 to 7.00
O=C(O)CC(c1ccc(OC2Cc3ccccc3C2)cc1)c1c(F)cccc1F (racemic) [Example 39, (+/−)3-(2,6-Difluorophenyl)-3-(4-(2,3-dihydro-1H-inden-2-yloxy)phenyl)propanoic acid] | 5.00 to 6.00
O=C(O)CC(c1ccccc1)c1ccc(OC2CCc3cc(Br)ccc32)cc1 (racemic) [Example 41, (+/−)-3-[4-(5-Bromo-indan-1-yloxy)-phenyl]-3-phenyl-propionic acid] | 6.00 to 7.00
O=C(O)CC(c1ccc(F)cc1)c1ccc(OC2CCc3cc(Br)ccc32)cc1 (racemic) [Example 42, (+/−)-3-[4-(5-Bromo-indan-1-yloxy)-phenyl]-3-(4-fluoro-phenyl)-propionic acid] | 6.00 to 7.00
O=C(O)CC(c1ccc(OC2Cc3ccccc3C2)cc1)c1cccs1 (racemic) [Example 48, (+/−)-3-(4-(2,3-Dihydro-1H-inden-2-yloxy)phenyl)-3-(thiophen-2-yl)propanoic acid] | 6.00 to 7.00
O=C(O)CC(c1ccc(OC2CCCCc3ccccc32)cc1)c1cccs1 (racemic) [Example 49, (+/−)3-(4-(6,7,8,9-Tetrahydro-5H-benzo[7]annulen-5-yloxy)phenyl)-3-(thiophen-2-yl)propanoic acid] | 5.00 to 6.00
O=C(O)CC1CCCc2cc(OC3Cc4ccccc4C3)ccc21 (racemic) [Example 53, (R/S)-2-(6-(2,3-Dihydro-1H-inden-2-yloxy)-1,2,3,4-tetrahydronaphthalen-1-yl)acetic acid] | 6.00 to 7.00
CC1(C)CCC(C)(C)c2cc(COc3ccc(C(CC(=O)O)c4cncnc4)cc3)ccc21 (racemic) [Example 79, (R/S)-3-Pyrimidin-5-yl-3-[4-(5,5,8,8-tetramethyl-5,6,7,8-tetrahydro-naphthalen-2-ylmethoxy)-phenyl]-propionic acid] | 5.00 to 6.00
CC#C[C@@H](CC(=O)O)c1ccc(O[C@@H]2CCc3cc(Br)ccc32)cc1 (single isomer, unassigned) [Example 44] | 7.00 to 8.00
CC#C[C@@H](CC(=O)O)c1ccc(OC2CCc3cc(-c4ccc(C(F)(F)F)cc4)ccc32)cc1 (stereo partly shown) [Example 1] | 7.00 to 8.00
CC#C[C@@H](CC(=O)O)c1ccc(OC2CCc3cc(Br)ccc32)cc1 (stereo partly drawn) [Example 2, (3S)-3-[4-(5-Bromo-indan-1-yloxy)-phenyl]-hex-4-ynoic acid] | 7.00 to 8.00
CC#C[C@@H](CC(=O)O)c1ccc(OC2CCc3cc(-c4cc(C)ccc4OCCCC)ccc32)cc1 (stereo partly drawn) [Example 3, (3S)-3-(4-(5-(2-Butoxy-5-methylphenyl)-2,3-dihydro-1H-inden-1-yloxy)phenyl)hex-4-ynoic acid] | 7.00 to 8.00

SMILES | pEC50
CC#C[C@@H](CC(=O)O)c1ccc(OC2CCc3c(Br)cccc32)cc1 (stereo partly drawn) [Example 5, (3S)-3-[4-(4-Bromo-indan-1-yloxy)-phenyl]-hex-4-ynoic acid] | 7.00 to 8.00
CC#C[C@@H](CC(=O)O)c1ccc(OC2CCc3c(-c4ccc(OC(F)(F)F)cc4)cccc32)cc1 (stereo partly drawn) [Example 6, (3S)-3-{4-[4-(4-Trifluoromethoxy-phenyl)-indan-1-yloxy]-phenyl}-hex-4-ynoic acid] | 7.00 to 8.00
CC#C[C@@H](CC(=O)O)c1ccc(OC2CCc3c(-c4ccc(C(F)(F)F)cc4)cccc32)cc1 (stereo partly shown) [Example 7] | 7.00 to 8.00
CC#C[C@@H](CC(=O)O)c1ccc(OC2CCc3c(-c4cc(C)ccc4OCCCC)cccc32)cc1 (stereo partly drawn) [Example 8, (3S)-3-{4-[4-(2-Butoxy-5-methyl-phenyl)-indan-1-yloxy]-phenyl}-hex-4-ynoic acid] | 7.00 to 8.00
CC#C[C@@H](CC(=O)O)c1ccc(OC2CCc3ccc(-c4ccc(C(F)(F)F)cc4)cc32)cc1 (stereo partly drawn) [Example 11, (3S)-3-(4-(6-(4-(trifluoromethyl)phenyl)-2,3-dihydro-1H-inden-1-yloxy)phenyl)hex-4-ynoic acid] | 7.00 to 8.00
CC#C[C@@H](CC(=O)O)c1ccc(OC2CCc3ccc(-c4cc(C)ccc4OCCCC)cc32)cc1 (stereo partly drawn) [Example 12, (3S)-3-{4-[6-(2-Butoxy-5-methyl-phenyl)-indan-1-yloxy]-phenyl}-hex-4-ynoic acid] | 7.00 to 8.00
CC#C[C@@H](CC(=O)O)c1ccc(OC2CCc3cc(F)ccc32)cc1 (stereo partly drawn) [Example 14, (3S)-3-(4-(5-Fluoro-2,3-dihydro-1H-inden-1-yloxy)phenyl)hex-4-ynoic acid] | 7.00 to 8.00
CC#C[C@@H](CC(=O)O)c1ccc(OC2CCc3cc(Cl)ccc32)cc1 (stereo partly drawn) [Example 15, (3S)-3-[4-(5-Chloro-indan-1-yloxy)-phenyl]-hex-4-ynoic acid] | > 8.00
CC#C[C@@H](CC(=O)O)c1ccc(OC2CCc3c(C)cccc32)cc1 (stereo partly drawn) [Example 16, (3S) 3-[4-(4-Methyl-indan-1-yloxy)-phenyl]-hex-4-ynoic acid] | 7.00 to 8.00
CC#C[C@@H](CC(=O)O)c1ccc(OC2CCc3ccc(OC)cc32)cc1 (stereo partly drawn) [Example 17, (3S)-3-[4-(6-Methoxy-indan-1-yloxy)-phenyl]-hex-4-ynoic acid] | 7.00 to 8.00
CC#C[C@@H](CC(=O)O)c1ccc(OC2CCc3cc(OC)ccc32)cc1 (stereo partly drawn) [Example 18, (3S)-3-[4-(5-Methoxy-indan-1-yloxy)-phenyl]-hex-4-ynoic acid] | 7.00 to 8.00
CC#C[C@@H](CC(=O)O)c1ccc(OC2CCc3c2ccc(OC)c3OC)cc1 (stereo partly drawn) [Example 19, (3S)-3-[4-(4,5-Dimethoxy-indan-1-yloxy)-phenyl]-hex-4-ynoic acid] | 5.00 to 6.00
CC#C[C@@H](CC(=O)O)c1ccc(OC2CCc3c(OC)ccc(OC)c32)cc1 (stereo partly drawn) [Example 20, (3S)-3-[4-(4,7-Dimethoxy-indan-1-yloxy)-phenyl]-hex-4-ynoic acid] | 6.00 to 7.00
CC#C[C@@H](CC(=O)O)c1ccc(OC2CCCc3ccccc32)cc1 (stereo partly drawn) [Example 24, (3S)-3-[4-(1,2,3,4-Tetrahydro-naphthalen-1-yloxy)-phenyl]-hex-4-ynoic acid] | 7.00 to 8.00
CC#C[C@@H](CC(=O)O)c1ccc(OC2CCCc3c(Br)cccc32)cc1 (stereo partly drawn) [Example 25, (3S)-3-[4-(5-Bromo-1,2,3,4-tetrahydro-naphthalen-1-yloxy)-phenyl]-hex-4-ynoic acid] | 7.00 to 8.00
CC#C[C@@H](CC(=O)O)c1ccc(OC2CCc3ccccc3C2)cc1 (stereo partly drawn) [Example 26, (3S)-3-[4-(1,2,3,4-Tetrahydro-naphthalen-2-yloxy)-phenyl]-hex-4-ynoic acid] | 6.00 to 7.00
CC#C[C@@H](CC(=O)O)c1ccc(OC2Cc3ccccc3C2)cc1 [Example 27, (3S)-3-[4-(Indan-2-yloxy)-phenyl]-hex-4-ynoic acid] | 7.00 to 8.00
CC#CC(CC(=O)O)c1ccc(OC2CCC(c3ccccc3)CC2)cc1 [Example 29, (R,S)-3-(4-(4-phenylcyclohexyloxy)phenyl)hex-4-ynoic acid] | 6.00 to 7.00
CC#C[C@@H](CC(=O)O)c1ccc(O[C@H]2CCc3cc(Br)ccc32)cc1 [Example 45, (S)-3-(4-((S)-5-bromo-2,3-dihydro-1H-inden-1-yloxy)phenyl)hex-4-ynoic acid] | 7.00 to 8.00
CC#C[C@@H](CC(=O)O)c1ccc(OC2CCc3ccccc32)cc1 (stereo partly drawn) [Example 46, (3S)-3-(4-(2,3-Dihydro-1H-inden-1-yloxy)phenyl)hex-4-ynoic acid] | 7.00 to 8.00
